Source: US8809352B2, “Sulfonamides as inhibitors of Bcl-2 family proteins for the treatments of cancer” (Novartis AG, priority 2009, dated 2014)

Target: BCL2 (Homo sapiens, UniProt P10415)
Test: Biacore SPR solution inhibition assay of BCL-2 binding to peptide derivatized sensor surfaces
Details: SPR competition; 56 nM BCL2 pre-equilibrated with compound one hour; biotinylated BAK, BAD and NOXA peptide surfaces; 25° C.
Summary of the method: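 Solution-competition SPR at 25 °C in HEPES pH 7.4 buffer with 1.25 mM DTT and 3% DMSO: compounds (6-point threefold series, 16 μM to 0.004 nM) pre-equilibrated 1 h with 56 nM BCL2, then injected over captured biotinylated BAK, BAD and NOXA peptide surfaces. Binding levels relative to BCL2-only controls gave % inhibition.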

Chain of BCL2 (P10415 whole entry): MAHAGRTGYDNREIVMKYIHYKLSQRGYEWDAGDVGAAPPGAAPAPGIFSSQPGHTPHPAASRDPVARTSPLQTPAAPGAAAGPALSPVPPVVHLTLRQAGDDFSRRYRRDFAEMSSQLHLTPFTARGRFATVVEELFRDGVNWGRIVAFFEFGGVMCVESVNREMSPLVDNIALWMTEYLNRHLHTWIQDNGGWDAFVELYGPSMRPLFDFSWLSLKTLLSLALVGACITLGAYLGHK

Structure (SMILES) | IC50 [µM]
CN(C)CC[C@H](CSc1ccccc1)Nc1ccc(S(=O)(=O)Nc2ncnc3c2CCN(C2CCN(Cc4ccccc4-c4ccc(Cl)cc4)CC2F)C3)cc1S(=O)(=O)C(F)(F)F (stereo partly drawn) [Example 66, N-(7-(1-((4′-chlorobiphenyl-2-yl)methyl)-3-fluoropiperidin-4-yl)-5,6,7,8tetrahydropyrido[3,4-d]pyrimidin-4-yl)-4-((R)-4-(dimethylamino)-1-(phenylthio)butan-2-ylamino)-3-(trifluoromethylsulfonyl)benzenesulfonamide] | 0.036
CN(C)CC[C@H](CSc1ccccc1)Nc1ccc(S(=O)(=O)Nc2nc(C(F)(F)F)nc3c2CCN(C2CCN(Cc4ccccc4-c4ccc(Cl)cc4)CC2)C3)cc1S(=O)(=O)C(F)(F)F [Example 67, (R)-N-(7-(1((4′-chlorobiphenyl-2-yl)methyl)piperidin-4-yl)-2-(trifluoromethyl)-5,6,7,8-tetrahydropyrido[3,4-d]pyrimidin-4-yl)-4-(4-(dimethylamino)-1-(phenylthio)butan-2-ylamino)-3-(trifluoramethylsulfonyl)benzenesulfonamide] | 0.042
O=S(=O)(Nc1nc(C(F)(F)F)nc2c1CCN(C1CCN(Cc3ccccc3-c3ccc(Cl)cc3)CC1)C2)c1ccc(N[C@H](CCN2CCOCC2)CSc2ccccc2)c(S(=O)(=O)C(F)(F)F)c1 [Example 68, (R)-N-(7-(1-((4′-chlorobiphenyl-2-yl)methyl)piperidin-4-yl)-2-(trifluoromethyl)-5,6,7,8-tetrahydropyrido[3,4-d]pyrimidin-4-yl)-4-(4-morpholino-1-(phenylthio)butan-2-ylamino)-3-(trifluoromethylsulfonyl)benzenesulfonamide] | 0.235
CN(C)CC[C@H](CSc1ccccc1)Nc1ccc(S(=O)(=O)Nc2nc(C(F)(F)F)nc3c2CCN(C2CCN(Cc4ccccc4-c4ccc(Cl)cc4)CC2F)C3)cc1S(=O)(=O)C(F)(F)F (stereo partly drawn) [Example 69, N-(7-(1-((4′-chlorobiphenyl-2-yl)methyl)-3-fluoropiperidin-4-yl)-2-(trifluoromethyl)-5,6,7,8-tetrahydropyrido[3,4-d]pyrimidin-4-yl)-4-((R)-4-(dimethylamino)-1-(phenylthio)butan-2-ylamino)-3-(trifluoromethylsulfonyl)benzenesulfonamide] | 0.047
CN(C)CC[C@H](CSc1ccccc1)Nc1ccc(S(=O)(=O)Nc2nc(C(F)(F)F)nc3c2CCN(C2CCN(CC4=C(c5ccc(Cl)cc5)CCC(C)(C)C4)CC2)C3)cc1S(=O)(=O)C(F)(F)F [Example 70] | 0.051
CN(C)CC[C@H](CSc1ccccc1)Nc1ccc(S(=O)(=O)Nc2nc(C(F)(F)F)nc3c2CCN(C2CCN(Cc4ccccc4-c4ccc(Cl)cc4)CC2)C3)cc1[N+](=O)[O-] [Example 71, (R)-N-(7-(1-((4′-chlorobiphenyl-2-yl)methyl)piperidin-4-yl)-2-(trifluoromethyl)-5,6,7,8-tetrahydropyrido[3,4-d]pyrimidin-4-yl)-4-(4-(dimethylamino)-1-(phenylthio)butan-2-ylamino)-3-nitrobenzenesulfonamide] | 0.02
O=S(=O)(Nc1ncnc2c1CN(C1CCN(Cc3ccccc3-c3ccc(Cl)cc3)CC1)C2)c1ccc(N[C@H](CCN2CCOCC2)CSc2ccccc2)c(S(=O)(=O)C(F)(F)F)c1 [Example 72, (R)-N-(6-(1-((4′-chlorobiphenyl-2-yl)methyl)piperidin-4-yl)-6,7-dihydro-5H-pyrrolo[3,4-d]pyrimidin-4-yl)-4-(4-morpholino-1-(phenylthio)butan-2-ylamino)-3-(trifluoromethylsulfonyl)benzenesulfonamide] | 0.971
[2H]C1(N2CCc3c(ncnc3NS(=O)(=O)c3ccc(N[C@H](CCN(C)C)CSc4ccccc4)c(S(=O)(=O)C(F)(F)F)c3)C2)CCN(Cc2cc(F)ccc2-c2ccc(Cl)cc2)CC1 [Example 73, (R)-N-(7-(1-((4′-chloro-4-fluorobiphenyl-2-yl)methyl)-4-deuteropiperidin-4-yl)-5,6,7,8-tetrahydropyrido[3,4-d]pyrimidin-4-yl)-4-(4-(dimethylamino)-1-(phenylthio)butan-2-ylamino)-3-(trifluoromethylsulfonyl)benzene sulfonamide] | 0.026
[2H]C1(N2CCc3c(nc(C(F)(F)F)nc3NS(=O)(=O)c3ccc(N[C@H](CCN4CCN(C)CC4)CSc4ccccc4F)c(S(=O)(=O)C(F)(F)F)c3)C2)CCN([C@@H](C)c2ccccc2-c2ccc(Cl)cc2)CC1 [Example 74] | 0.041
[2H]C1(N2CCc3c(nc(N(C)C)nc3NS(=O)(=O)c3ccc(N[C@H](CCN4CCN(C)CC4)CSc4ccccc4F)c(S(=O)(=O)C(F)(F)F)c3)C2)CCN(CC2=C(c3ccc(Cl)cc3)CC(C)(C)CC2)CC1 [Example 75, (R)-N-(7-(1-((2-(4-chlorophenyl)-4,4-dimethylcyclohex-1-enyl)methyl)-4-deuteropiperidin-4-yl)-2-(dimethylamino)-5,6,7,8-tetrahydropyrido[3,4-d]pyrimidin-4-yl)-4-(1-(2-fluorophenylthio)-4-(4-methylpiperazin-1-yl)butan-2-ylamino)-3-(trifluoromethylsulfonyl)benzenesulfonamide] | 0.066
[2H]C1(N2CCc3c(ncnc3NS(=O)(=O)c3ccc(N[C@H](CCN(C)C(C)C)CSc4ccccc4)c(S(=O)(=O)C(F)(F)F)c3)C2)CCN(CC2=C(c3ccc(Cl)cc3)CC(C)(C)CC2)CC1 [Example 78, N-(7-(1-[2-(4-Chloro-phenyl)-4,4-dimethyl-cyclohex-1-enylmethyl]-4-deutero-piperidin-4-yl)-5,6,7,8-tetrahydro-pyrido[3,4-d]pyrimidin-4-yl)-4-[(R)-3-(isopropyl-methyl-amino)-1-phenylsulfanylmethyl-propylamino]-3-trifluoromethanesulfonyl-benzenesulfonamide] | 0.041
[2H]C1(N2CCc3c(ncnc3NS(=O)(=O)c3ccc(N[C@H](CCN)CSc4ccccc4)c(S(=O)(=O)C(F)(F)F)c3)C2)CCN(Cc2cc(F)ccc2-c2ccc(Cl)cc2)CC1 [Example 79, 4-((R)-3-Amino-1-phenylsulfanylmethyl-propylamino)-N-{7-[4-deutero-1-(4′-chloro-4-fluoro-biphenyl-2-ylmethyl)-piperidin-4-yl]-5,6,7,8-tetrahydro-pyrido[3,4-d]pyrimidin-4-yl}-3-trifluoromethanesulfonyl-benzenesulfonamide] | 0.084
[2H]C1(N2CCc3c(ncnc3NS(=O)(=O)c3ccc(N[C@H](CCN4CC5CCC(C4)O5)CSc4ccccc4)c(S(=O)(=O)C(F)(F)F)c3)C2)CCN(Cc2cc(F)ccc2-c2ccc(Cl)cc2)CC1 [Example 80, 4-((2R)-4-(8-oxa-3-azabicyclo[3.2.1]octan-3-yl)-1-(phenylthio)butan-2-ylamino)-N-(7-(1-((4′-chloro-4-fluorobiphenyl-2-yl)methyl)-4-deuteropiperidin-4-yl)-5,6,7,8-tetrahydropyrido[3,4-d]pyrimidin-4-yl)-3-(trifluoromethylsulfonyl)benzenesulfonamide] | 0.225
[2H]C1(N2CCc3c(ncnc3NS(=O)(=O)c3ccc(N[C@H](CCN4CC5CCC(C4)O5)CSc4ccccc4)c(S(=O)(=O)C(F)(F)F)c3)C2)CCN(CC2=C(c3ccc(Cl)cc3)CC(C)(C)CC2)CC1 [Example 81, 4-((2R)-4-(8-oxa-3-azabicyclo[3.2.1]octan-3-yl)-1-(phenylthio)butan-2-ylamino)-N-(7-(1-((2-(4-chlorophenyl)-4,4-dimethylcyclohex-1-enyl)methyl)-4-deuteropiperidin-4-yl)-5,6,7,8-tetrahydropyrido[3,4-d]pyrimidin-4-yl)-3-(trifluoromethylsulfonyl)-benzenesulfonamide] | 0.312
[2H]C1(N2CCc3c(ncnc3NS(=O)(=O)c3ccc(N[C@H](CCN4CCCC4)CSc4ccccc4)c(S(=O)(=O)C(F)(F)F)c3)C2)CCN(Cc2cc(F)ccc2-c2ccc(Cl)cc2)CC1 [Example 82, (R)-N-(7-(1-((4′-chloro-4 fluorobiphenyl-2-yl)methyl)-4-dueteropiperidin-4-yl)-5,6,7,8-tetrahydropyrido[3,4-d]pyrimidin-4-yl)-4-(1-(phenylthio)-4-(pyrrolidin-1-yl)butan-2-ylamino)-3-(trifluoromethylsulfonyl) benzene sulfonamide] | 0.109
[2H]C1(N2CCc3c(ncnc3NS(=O)(=O)c3ccc(N[C@H](CCN4CCN(C)CC4)CSc4ccccc4F)c(S(=O)(=O)C(F)(F)F)c3)C2)CCN(CC2=C(c3ccc(Cl)cc3)CC(C)(C)CC2)CC1 [Example 83] | 0.028
[2H]C1(N2CCc3c(ncnc3NS(=O)(=O)c3ccc(N[C@H](CCN(C)C(C)C)CSc4ccccc4)c(S(=O)(=O)C(F)(F)F)c3)C2)CCN(Cc2cc(F)ccc2-c2ccc(Cl)cc2)CC1 [Example 84] | 0.073
[2H]C1(N2CCc3c(ncnc3NS(=O)(=O)c3ccc(N[C@H](CCN4CCCC4)CSc4ccccc4)c(S(=O)(=O)C(F)(F)F)c3)C2)CCN(CC2=C(c3ccc(Cl)cc3)CC(C)(C)CC2)CC1 [Example 85, (R)-N-(7-(1-((2-(4-chlorophenyl)-4,4-dimethylcyclohex-1-enyl)methyl)-4-deuteropiperidin-4-yl)-5,6,7,8-tetrahydropyrido[3,4-d]pyrimidin-4-yl)-4-(1-(phenylthio)-4-(pyrrolidin-1-yl)butan-2-ylamino)-3-(trifluoromethylsulfonyl)benzenesulfonamide] | 0.03
[2H]C1(N2CCc3c(ncnc3NS(=O)(=O)c3ccc(N[C@H](CCN4CCOCC4)CSc4ccccc4)c(S(=O)(=O)C(F)(F)F)c3)C2)CCN([C@H](C)c2ccccc2-c2ccc(Cl)cc2)CC1 [Example 86, N-(7-{1-[(R)-1-(4′-Chloro-biphenyl-2-yl)-ethyl]-4-deuteropiperidin-4-yl}-5,6,7,8-tetrahydro-pyrido[3,4-d]pyrimidin-4-yl)-4-((R)-3-morpholin-4-yl-1-phenylsulfanylmethyl-propylamino)-3-trifluoromethanesulfonyl-benzenesulfonamide] | 0.046
